Assay results: publication PMC12297698 (Scientific Reports, 2025)

Target: T1, Caspase-3 (Recombinant human Caspase-3 protein (Active)) (Homo sapiens, UniProt P42574)
T1 sequence (P42574 29-175): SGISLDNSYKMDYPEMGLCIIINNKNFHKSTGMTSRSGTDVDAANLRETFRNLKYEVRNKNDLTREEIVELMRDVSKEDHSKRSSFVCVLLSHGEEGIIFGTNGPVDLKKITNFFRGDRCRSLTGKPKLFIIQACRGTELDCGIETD
T1 sequence (P42574 176-277): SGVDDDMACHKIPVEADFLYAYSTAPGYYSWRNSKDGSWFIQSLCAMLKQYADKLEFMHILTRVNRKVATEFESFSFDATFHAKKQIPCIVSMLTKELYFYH
Assay: SPR, Biacore T200, CM5 chip, immobilised caspase-3
Assay type: binding

Kd: 76.7 µM
SMILES: OC[C@H]1O[C@@H](OCCc2ccc(O)cc2)[C@H](O)[C@@H](O)[C@@H]1O [Salidroside]
